Assay results from paper PMC10817917, “Alkyl deoxyglycoside-polymyxin combinations against critical priority carbapenem-resistant gram-negative bacteria” (Scientific Reports, 2024).
Read-outs that look alike come from different tables or passages of the source.

Columns and labels:
K. pneumoniae CQ4921 = test: Broth microdilution MIC/MBC, glycosides with or without polymyxins; assay type: cell-based, Klebsiella pneumoniae; conditions: for MIC: Klebsiella pneumoniae, CQ4921
P. aeruginosa CQ4924 = test: Broth microdilution MIC, glycosides with or without polymyxins; assay type: cell-based, Pseudomonas aeruginosa; conditions: for MIC: Pseudomonas aeruginosa, CQ4924
Caco-2 cells = test: Resazurin cell viability assay (cytotoxicity); assay type: cell-based, human; conditions: Homo sapiens, Caco-2, 72 h, read-out: IC50
Method: (§1) Cytotoxicity of each compound alone or in combination with different polymyxin concentrations was evaluated through the resazurin cell viability assay[49] in human embryonic HEK-293T cells, as well as in human colon adenocarcinoma Caco-2 cells, after a 72-h long incubation period.
(§2) HEK-293T and Caco-2 cells were grown in RPMI 1640 medium (VWR) supplemented with 10% FBS (Biowest), 1% PenStrep (Sigma Aldrich), and 1% glutamine (Biowest) in a humidified incubator at 37 °C with a 5% CO2 atmosphere. Twice a week, the medium was aspirated, the cells were washed with DPBS (VWR), trypsinized with trypsin–EDTA solution (Biowest), and resuspended in fresh culture medium. The dose-dependent effects of each glycoside or glycoside-polymyxin combination were evaluated by the resazurin cell viability assay. Polymyxins (colistin sulfate and PMB sulfate for microbiological assays, European Pharmacopoeia Reference Standards, Sigma-Aldrich) were firstly dissolved in sterilized Mili-Q water to a stock concentration of 1 mg/mL, while glycosides were dissolved in DMSO to a stock concentration of 30 mM. 1.5 × 10^4 cells/well in 96.5 µL of medium were seeded onto 96-well plates and incubated at 37 °C for 24 h. For each compound, ten stock dilutions (with concentrations from 750 to 75 µM) were prepared in fresh medium immediately prior to incubation. 16 µL of each dilution were added to each well so that the final glycoside concentrations ranged from 100 to 10 µM in each row in a final assay volume of 120 µL. In addition, the previously prepared polymyxin stock solutions were diluted in fresh medium, affording new stocks of 8, 4, and 2 µg/mL. The same volume (7.5 µL/well) of PMB or colistin was then added to each row to achieve a final polymyxin concentration of 0.5, 0.25, and 0.125 µg/mL, respectively, regardless of the glycoside concentration. In assays without polymyxin, the same volume (7.5 µL/well) of medium was added. In all assays, the maximum DMSO concentration was 0.33%. After a 72-h incubation at 37 °C, 12 µL of a 0.15 mg/mL resazurin (Sigma-Aldrich) in sterilized Mili-Q water were added to each well, and the plates were left incubating for another 4 h at 37 °C. Resorufin was measured at 570/600 nm, and the percentage of resazurin reduction, corresponding to the cell viability percentage, was calculated according to Eq. (1)[60]. IC50 values were obtained by best fitting the dose-dependent inhibition curves using the Prism 9® software. The results were expressed as the mean ± SD of three independent replicates, with only data from analysis with R^2 > 0.90 being considered.1 %Cellviability=Abssample-Absmediumcontrol/Abscellcontrol-Absmediumcontrol×100

HEK-293T cells = test: Resazurin cell viability assay (cytotoxicity); assay type: cell-based, human; conditions: Homo sapiens, HEK-293T, 72 h, read-out: IC50
Method: as §1, §2

E. cloacae CQ1941 = test: Broth microdilution MIC/MBC, glycosides with or without polymyxins; assay type: cell-based; conditions: for MIC: Enterobacter cloacae, CQ1941
K. pneumoniae CQ1947 = test: Broth microdilution MIC, glycosides with or without polymyxins; assay type: cell-based, Klebsiella pneumoniae; conditions: for MIC: Klebsiella pneumoniae, CQ1947
[1] = alone, read-out: MICA (MIC of each compound individually)
[2] = combination with the lowest FICI
[3] = compound + colistin, lowest FICI
[4] = tested alone (no polymyxin adjuvant)

CCCCCCCCCCCCO[C@H]1C[C@H](O)[C@@H](O)[C@H](C)O1 [Compound 3, dodecyl 2,6-dideoxy-α-L-arabino-hexopyranoside]
MIC of colistin in combination with the compound (K. pneumoniae CQ4921; Cpd conc. 0.4 μg/mL, strain C): 0.5 µg/mL | MIC of colistin in combination with the compound (K. pneumoniae CQ4921; Cpd conc. 0.8 μg/mL, strain C): 0.5 µg/mL | MIC of colistin in combination with the compound (K. pneumoniae CQ4921; Cpd conc. 3.125 μg/mL, strain C): 0.25 µg/mL | MIC of colistin in combination with the compound (K. pneumoniae CQ4921; Cpd conc. 6.25 μg/mL, strain C): 0.25 µg/mL | MIC of colistin in combination with the compound (K. pneumoniae CQ4921; Cpd conc. 12.5 μg/mL, strain C): 0.25 µg/mL | MIC of colistin in combination with the compound (K. pneumoniae CQ4921; Cpd conc. […], strain C): 0.5 µg/mL | MIC (K. pneumoniae CQ4921; agent alone, no adjuvant (polymyxin conc. 0), strain C, read-out: MIC): > 100 µg/mL | MIC (K. pneumoniae CQ4921; [1]): > 100 µg/mL | MIC of compound in combination with PMB (K. pneumoniae CQ4921; PMB 0.5 μg/mL, strain C): ≤ 0.1 µg/mL | MIC of compound in combination with colistin (K. pneumoniae CQ4921; colistin 0.06 μg/mL, strain C): > 100 µg/mL | MIC of compound in combination with colistin (K. pneumoniae CQ4921; colistin 0.125 μg/mL, strain C): > 100 µg/mL | MIC of compound in combination with colistin (K. pneumoniae CQ4921; colistin 0.25 μg/mL, strain C): 3.1 µg/mL | MIC of compound in combination with colistin (K. pneumoniae CQ4921; colistin 0.5 μg/mL, strain C): 0.2 µg/mL | MICA(A + B) (MIC of compound in combination with colistin) (K. pneumoniae CQ4921; [2]): 3.125 µg/mL | MICB(A + B) (MIC of colistin in combination with compound) (K. pneumoniae CQ4921; [2]): 0.25 µg/mL | Interpretation (of FICI) (K. pneumoniae CQ4921; compound + colistin): Additive (from 0.5 to 1.0 were additive) | FICI (K. pneumoniae CQ4921; [3]): 0.52 | MIC of colistin in combination with the compound (P. aeruginosa CQ4924; Cpd conc. 0.4 μg/mL, strain H): > 0.5 µg/mL | MIC of colistin in combination with the compound (P. aeruginosa CQ4924; Cpd conc. 0.8 μg/mL, strain H): > 0.5 µg/mL | MIC of colistin in combination with the compound (P. aeruginosa CQ4924; Cpd conc. 3.125 μg/mL, strain H): 0.5 µg/mL | MIC of colistin in combination with the compound (P. aeruginosa CQ4924; Cpd conc. 6.25 μg/mL, strain H): 0.5 µg/mL | MIC of colistin in combination with the compound (P. aeruginosa CQ4924; Cpd conc. 12.5 μg/mL, strain H): 0.5 µg/mL | MIC of colistin in combination with the compound (P. aeruginosa CQ4924; Cpd conc. […], strain H): > 0.5 µg/mL | MIC of compound in combination with PMB (P. aeruginosa CQ4924; PMB 0.25 μg/mL, strain H): > 100 µg/mL | MIC of compound in combination with PMB (P. aeruginosa CQ4924; PMB 0.5 μg/mL, strain H): > 100 µg/mL | MIC (P. aeruginosa CQ4924; agent alone, no adjuvant (polymyxin conc. 0), strain H, read-out: MIC): > 100 µg/mL | MIC (P. aeruginosa CQ4924; [1]): > 100 µg/mL | MIC of compound in combination with colistin (P. aeruginosa CQ4924; colistin 0.06 μg/mL, strain H): > 100 µg/mL | MIC of compound in combination with colistin (P. aeruginosa CQ4924; colistin 0.125 μg/mL, strain H): > 100 µg/mL | MIC of compound in combination with colistin (P. aeruginosa CQ4924; colistin 0.25 μg/mL, strain H): > 100 µg/mL | MIC of compound in combination with colistin (P. aeruginosa CQ4924; colistin 0.5 μg/mL, strain H): 3.1 µg/mL | MICA(A + B) (MIC of compound in combination with colistin) (P. aeruginosa CQ4924; [2]): 3.125 µg/mL | MICB(A + B) (MIC of colistin in combination with compound) (P. aeruginosa CQ4924; [2]): 0.5 µg/mL | Interpretation (of FICI) (P. aeruginosa CQ4924; compound + colistin): Additive (from 0.5 to 1.0 were additive) | FICI (P. aeruginosa CQ4924; [3]): 0.52 | IC50 (Caco-2 cells; Colistin 0.25 μg/mL): 69.2 ± 1.25 µM | IC50 (Caco-2 cells; Colistin 0.5 μg/mL): 68.2 ± 2.12 µM | IC50 (Caco-2 cells; No polymyxin): 68.9 ± 2.21 µM | IC50 (Caco-2 cells; [4]): 21.8 µg/mL | IC50 (HEK-293T cells; Colistin 0.5 μg/mL): 79.3 ± 2 µM | IC50 (HEK-293T cells; No polymyxin): 72.5 ± 2.51 µM | IC50 (HEK-293T cells; PMB 0.5 μg/mL): 75.1 ± 2.7 µM | IC50 (HEK-293T cells; [4]): 22.9 µg/mL | MIC of colistin in combination with the compound (E. cloacae CQ1941; Cpd conc. 0.4 μg/mL, strain D): 0.5 µg/mL | MIC of colistin in combination with the compound (E. cloacae CQ1941; Cpd conc. 0.8 μg/mL, strain D): 0.5 µg/mL | MIC of colistin in combination with the compound (E. cloacae CQ1941; Cpd conc. 3.125 μg/mL, strain D): 0.25 µg/mL | MIC of colistin in combination with the compound (E. cloacae CQ1941; Cpd conc. 6.25 μg/mL, strain D): 0.25 µg/mL | MIC of colistin in combination with the compound (E. cloacae CQ1941; Cpd conc. 12.5 μg/mL, strain D): 0.25 µg/mL | MIC of colistin in combination with the compound (E. cloacae CQ1941; Cpd conc. […], strain D): 0.25 µg/mL | MIC (E. cloacae CQ1941; agent alone, no adjuvant (polymyxin conc. 0), strain D, read-out: MIC): > 100 µg/mL | MIC (E. cloacae CQ1941; [1]): > 100 µg/mL | MIC of compound in combination with PMB (E. cloacae CQ1941; PMB 0.5 μg/mL, strain D): ≤ 0.1 µg/mL | MIC of compound in combination with colistin (E. cloacae CQ1941; colistin 0.06 μg/mL, strain D): > 100 µg/mL | MIC of compound in combination with colistin (E. cloacae CQ1941; colistin 0.125 μg/mL, strain D): > 100 µg/mL | MIC of compound in combination with colistin (E. cloacae CQ1941; colistin 0.25 μg/mL, strain D): 1.6 µg/mL | MIC of compound in combination with colistin (E. cloacae CQ1941; colistin 0.5 μg/mL, strain D): ≤ 0.1 µg/mL | MICA(A + B) (MIC of compound in combination with colistin) (E. cloacae CQ1941; [2]): 1.6 µg/mL | MICB(A + B) (MIC of colistin in combination with compound) (E. cloacae CQ1941; [2]): 0.25 µg/mL | Interpretation (of FICI) (E. cloacae CQ1941; compound + colistin): Additive (from 0.5 to 1.0 were additive) | FICI (E. cloacae CQ1941; [3]): 0.51 | MIC of colistin in combination with the compound (K. pneumoniae CQ1947; Cpd conc. 0.4 μg/mL, strain F): 0.5 µg/mL | MIC of colistin in combination with the compound (K. pneumoniae CQ1947; Cpd conc. 0.8 μg/mL, strain F): 0.5 µg/mL | MIC of colistin in combination with the compound (K. pneumoniae CQ1947; Cpd conc. 3.125 μg/mL, strain F): 0.5 µg/mL | MIC of colistin in combination with the compound (K. pneumoniae CQ1947; Cpd conc. 6.25 μg/mL, strain F): 0.5 µg/mL | MIC of colistin in combination with the compound (K. pneumoniae CQ1947; Cpd conc. 12.5 μg/mL, strain F): 0.5 µg/mL | MIC of colistin in combination with the compound (K. pneumoniae CQ1947; Cpd conc. […], strain F): 0.5 µg/mL | MIC (K. pneumoniae CQ1947; agent alone, no adjuvant (polymyxin conc. 0), strain F, read-out: MIC): > 100 µg/mL | MIC (K. pneumoniae CQ1947; [1]): > 100 µg/mL | MIC of compound in combination with PMB (K. pneumoniae CQ1947; PMB 0.25 μg/mL, strain F): > 100 µg/mL | MIC of compound in combination with PMB (K. pneumoniae CQ1947; PMB 0.5 μg/mL, strain F): 1.6 µg/mL | MIC of compound in combination with colistin (K. pneumoniae CQ1947; colistin 0.06 μg/mL, strain F): > 100 µg/mL | MIC of compound in combination with colistin (K. pneumoniae CQ1947; colistin 0.125 μg/mL, strain F): > 100 µg/mL | MIC of compound in combination with colistin (K. pneumoniae CQ1947; colistin 0.25 μg/mL, strain F): > 100 µg/mL | MIC of compound in combination with colistin (K. pneumoniae CQ1947; colistin 0.5 μg/mL, strain F): ≤ 0.1 µg/mL | MICA(A + B) (MIC of compound in combination with colistin) (K. pneumoniae CQ1947; [2]): 0.4 µg/mL | MICB(A + B) (MIC of colistin in combination with compound) (K. pneumoniae CQ1947; [2]): 0.5 µg/mL | Interpretation (of FICI) (K. pneumoniae CQ1947; compound + colistin): Indifferent (1.0 to 4.0 were indifferent) | FICI (K. pneumoniae CQ1947; [3]): 1.002
